Measurements reported in patent EP4606382A1, “INHIBITORS OF TANGO1 ACTIVITY AND METHODS OF USE THEREOF” (Fundació Centre de Regulació Genòmica, priority 2024, dated 2025).
Ends that are not written are not given here.

Tested on: normal human skin fibroblasts
Experiment: LDH release cytotoxicity assay
Type: cell-based
Details: primary human skin fibroblasts
Experimental: To test if the peptides efficiently reduce collagen secretion also in primary cells derived from human individuals, normal human skin fibroblasts, the key producers of collagen in connective tissues, were treated with the peptides P2 and P5.
Cytotoxic effects induced by peptide treatment were determined by lactate dehydrogenase (LDH) levels in fibroblast supernatants using Cytotoxicity Assay (Promega G1780) according to the manufacturer's instructions.

Substance | cytotoxic effects (LDH release)
LRQKVEILNELYQQKEMALQKKLSQEEYERGLRKRLRKFRNK-NH2 [Peptide P2] | neither P2 nor P5 nor P2+P5 exerted cytotoxic effects
LEKEEKLSKVDEKISHATEELETYRKRAKDLGLRKRLRKFRNK-NH2 [Peptide P5] | neither P2 nor P5 nor P2+P5 exerted cytotoxic effects
